# According to US20060293249A1, “Porphyrin derivatives” (PhotoBiotics Limited, priority 2002, published 2006):
# Where two headings read alike, the source gives them in different places.
# Legend:
# [1] = in toluene; known standard value; cited from earlier work
# [2] = compounds known in the art; cited from earlier work
# [3] = Solubility remark in synthesis; assay type: physicochemical
# [4] = Determination of singlet oxygen quantum yields (phosphorescence at 1270 nm following laser excitation, relative to reference standard); assay type: physicochemical
# Procedure: Air equilibrated solutions of the sensitisers were optically matched at the laser excitation wavelength along with that of the reference standard whose singlet oxygen quantum yield is known. Singlet oxygen generation is detected by its phosphorescence at 1270 nm following laser excitation. At each laser intensity the recorded phosphorescence trace was obtained by signal averaging 10 single shots. A linear regression between the signal amplitude and the laser intensity is carried out with the aim of calculating the slope of the straight line and since the gradient is proportional to the singlet oxygen quantum yield, by comparison with the gradient obtained for the standard, the singlet oxygen quantum yield for the sample can calculated using: φ=φstandard×(slopesample/slopestandard)×(absorptionsample/absorptionstandard)
# This is a comparative method where the value obtained for φ is relative to that of a known standard. The quality of the results obtained are heavily dependent on the quality of the standard, which should be freshly prepared before measurements.
compound,measurement,setting,value
C=Cc1c(C)c2cc3nc(c4c5[n-]c(cc6nc(cc1[n-]2)C(C)=C6CC)c(C)c5C(=O)[C@@H]4C(=O)OC)[C@@H](CCC(=O)OC/C=C(\C)CCC[C@H](C)CCC[C@H](C)CCCC(C)C)[C@@H]3C.[Mg+2] [chlorophyll A],singlet oxygen quantum yield of reference standard,[1],0.6
disulfonated aluminium phthalocyanine [AIPCS2],singlet oxygen quantum yield,[2],0.3
"5-Pentane-10,15,20-triiodo-porphyrin [[30]]",solubility,[3],limited solubility
"5-Nonane-10,15,20-triiodo-porphyrin [[18]]",solubility,[3],limited solubility
"Zinc5-[5-(2′-(trimethylsilyl)ethyl-4-hydroxybenzoate)pentane]-10,15,20-tri-2-ethynylpyridine-porphyrin [Compound [11]]",singlet oxygen quantum yield,[4],around 0.81
same,singlet oxygen quantum yield,[4]; in toluene,0.8109
"C[Si](C)(C)CCOC(=O)c1ccc(OCCCCCc2c3nc(c(I)c4ccc([nH]4)c(I)c4nc(c(I)c5ccc2[nH]5)C=C4)C=C3)cc1 [[9], 5-[5-(2′-(trimethylsilyl)ethyl-4-hydroxybenzoate)pentane]-10,15,20-triiodo-porphyrin]",solubility,[3],limited solubility
